Laboratory results as given in patent publication US20060014206A1, “Assay methods for state-dependent calcium channel agonists/antagonists” (priority 2002, published 2006).

Biological target: T1, L-type calcium channel, the α1C subunit (Homo sapiens, UniProt Q13936)
T1 construct: expressed in transfected cells
Experiment: FLIPR assay of K+-stimulated calcium influx in C1-6-37-3 cells (HEK 293 stably transfected with L-type α1C channel and Kir 2.3)
Type: cell-based
Settings: fluo-3 loaded cells, increasing potassium concentration (FIG. 4)
Description: The cell line used in this embodiment has a stably transfected L-type calcium channel, the α1C subunit. It also was transfected with the Kir 2.3 inward rectifier K channel, which allows for control of cell membrane potential through alteration of extracellular [K^+]o. Preincubation of the cells for 10 min in 30 mM [K^+]o partially depolarizes the cells.
Specifically exemplified herein is an assay to determine state-dependent drug-calcium channel interactions using a cell line that co-expresses a potassium channel (Kir2.3) that determines the resting membrane potential of the cells as a function of the external potassium ion concentration ([K]o) and a voltage gated calcium channel. Co-expressed in these cells is the L-type voltage gated calcium channel complex (alpha1C, alpha2-delta, beta2a). Potassium is used in a two step manner in this assay. First it is used to set the resting membrane potential (Vm) during antagonist incubation. […] This calcium influx is detected using a calcium sensitive dye (eg Fluo-3, Fluo4, Fura2, etc.). If the calcium influx is diminished by exposure to antagonists, this will be detected when compared to the control condition.
Hek 293 cells were stably transfected with the alpha 1C subunit of the L-type Calcium ion channel and Kir 2.3 inward K^+ rectifying channel (C1-6-37-3 cells). Calcium influx into the cells was measured in a FLIPR™ (Molecular Devices, CA). […]

T1 sequence (Q13936 whole entry): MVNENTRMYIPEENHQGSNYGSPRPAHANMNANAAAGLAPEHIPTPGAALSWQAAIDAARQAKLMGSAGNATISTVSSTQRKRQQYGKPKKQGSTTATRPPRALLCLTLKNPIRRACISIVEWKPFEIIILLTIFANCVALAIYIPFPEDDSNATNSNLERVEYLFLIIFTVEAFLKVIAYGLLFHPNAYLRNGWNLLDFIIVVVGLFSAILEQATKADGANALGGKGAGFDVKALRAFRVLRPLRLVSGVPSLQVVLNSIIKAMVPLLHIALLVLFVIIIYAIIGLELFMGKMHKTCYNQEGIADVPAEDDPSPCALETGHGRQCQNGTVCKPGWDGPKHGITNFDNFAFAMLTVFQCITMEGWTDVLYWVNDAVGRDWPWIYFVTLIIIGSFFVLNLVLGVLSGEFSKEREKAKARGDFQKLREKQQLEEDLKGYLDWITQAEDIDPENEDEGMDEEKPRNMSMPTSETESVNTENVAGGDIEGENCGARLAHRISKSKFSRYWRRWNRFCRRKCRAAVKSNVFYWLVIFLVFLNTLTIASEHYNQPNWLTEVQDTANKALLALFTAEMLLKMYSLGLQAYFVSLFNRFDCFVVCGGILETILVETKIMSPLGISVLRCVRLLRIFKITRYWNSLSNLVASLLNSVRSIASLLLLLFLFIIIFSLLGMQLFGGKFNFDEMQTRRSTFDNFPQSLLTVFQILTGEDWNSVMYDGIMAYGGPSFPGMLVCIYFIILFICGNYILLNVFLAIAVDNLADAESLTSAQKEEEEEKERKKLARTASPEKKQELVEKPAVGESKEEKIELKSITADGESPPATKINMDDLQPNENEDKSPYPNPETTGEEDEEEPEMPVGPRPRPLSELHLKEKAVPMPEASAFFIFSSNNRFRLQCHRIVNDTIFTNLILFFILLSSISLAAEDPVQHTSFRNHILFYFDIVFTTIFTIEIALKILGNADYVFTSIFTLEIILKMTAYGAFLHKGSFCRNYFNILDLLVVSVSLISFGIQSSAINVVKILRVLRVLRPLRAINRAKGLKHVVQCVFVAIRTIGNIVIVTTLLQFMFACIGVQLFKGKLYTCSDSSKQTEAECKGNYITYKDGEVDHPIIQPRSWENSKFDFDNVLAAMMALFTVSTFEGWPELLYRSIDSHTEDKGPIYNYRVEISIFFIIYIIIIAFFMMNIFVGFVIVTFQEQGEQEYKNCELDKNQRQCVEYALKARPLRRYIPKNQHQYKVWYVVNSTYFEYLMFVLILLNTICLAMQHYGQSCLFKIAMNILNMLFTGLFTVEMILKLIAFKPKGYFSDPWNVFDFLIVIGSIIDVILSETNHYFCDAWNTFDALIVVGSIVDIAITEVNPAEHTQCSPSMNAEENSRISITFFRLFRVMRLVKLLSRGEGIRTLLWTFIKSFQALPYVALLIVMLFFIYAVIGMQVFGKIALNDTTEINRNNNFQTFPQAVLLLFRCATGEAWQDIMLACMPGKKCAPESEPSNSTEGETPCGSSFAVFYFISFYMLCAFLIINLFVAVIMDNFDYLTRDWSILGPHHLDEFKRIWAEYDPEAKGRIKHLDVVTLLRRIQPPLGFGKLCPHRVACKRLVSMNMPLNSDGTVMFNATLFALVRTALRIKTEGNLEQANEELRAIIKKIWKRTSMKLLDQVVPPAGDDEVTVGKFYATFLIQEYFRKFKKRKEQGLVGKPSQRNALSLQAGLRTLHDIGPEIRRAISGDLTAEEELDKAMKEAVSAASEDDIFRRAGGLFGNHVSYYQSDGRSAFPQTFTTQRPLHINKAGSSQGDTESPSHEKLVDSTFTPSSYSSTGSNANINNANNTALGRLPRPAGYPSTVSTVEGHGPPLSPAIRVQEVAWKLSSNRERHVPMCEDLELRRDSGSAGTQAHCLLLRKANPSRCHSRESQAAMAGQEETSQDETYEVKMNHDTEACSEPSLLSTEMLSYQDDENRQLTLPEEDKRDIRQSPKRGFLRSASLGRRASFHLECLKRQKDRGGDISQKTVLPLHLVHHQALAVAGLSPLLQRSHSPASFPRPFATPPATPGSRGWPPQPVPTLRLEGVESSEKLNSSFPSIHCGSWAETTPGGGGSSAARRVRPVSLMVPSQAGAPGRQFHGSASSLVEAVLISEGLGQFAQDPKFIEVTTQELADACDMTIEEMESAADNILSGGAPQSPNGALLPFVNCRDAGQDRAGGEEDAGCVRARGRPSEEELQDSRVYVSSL
T1 sequence (P54289 25-946 partner limits assumed): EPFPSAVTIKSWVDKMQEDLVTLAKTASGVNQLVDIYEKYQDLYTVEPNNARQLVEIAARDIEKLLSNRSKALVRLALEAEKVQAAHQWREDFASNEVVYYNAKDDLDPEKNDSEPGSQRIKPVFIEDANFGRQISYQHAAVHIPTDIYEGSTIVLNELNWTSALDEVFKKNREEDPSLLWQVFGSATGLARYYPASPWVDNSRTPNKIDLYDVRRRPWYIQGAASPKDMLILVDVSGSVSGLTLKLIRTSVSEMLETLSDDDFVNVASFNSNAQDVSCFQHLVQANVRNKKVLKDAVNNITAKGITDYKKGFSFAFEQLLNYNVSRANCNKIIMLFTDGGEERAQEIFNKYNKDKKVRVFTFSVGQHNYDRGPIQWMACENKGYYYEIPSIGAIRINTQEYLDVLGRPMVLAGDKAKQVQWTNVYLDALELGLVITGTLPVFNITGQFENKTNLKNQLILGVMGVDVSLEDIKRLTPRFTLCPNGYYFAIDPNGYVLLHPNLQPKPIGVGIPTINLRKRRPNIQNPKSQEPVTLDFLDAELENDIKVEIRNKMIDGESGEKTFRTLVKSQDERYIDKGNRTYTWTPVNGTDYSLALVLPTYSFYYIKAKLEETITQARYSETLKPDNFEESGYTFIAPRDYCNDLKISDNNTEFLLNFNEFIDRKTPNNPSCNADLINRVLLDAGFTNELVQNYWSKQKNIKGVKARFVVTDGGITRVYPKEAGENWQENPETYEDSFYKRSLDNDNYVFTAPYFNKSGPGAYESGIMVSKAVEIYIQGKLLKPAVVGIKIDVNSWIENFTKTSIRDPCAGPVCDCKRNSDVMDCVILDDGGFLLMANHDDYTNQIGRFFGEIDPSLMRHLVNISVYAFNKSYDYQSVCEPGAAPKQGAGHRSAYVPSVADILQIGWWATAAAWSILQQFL
T1 sequence (P54289 947-1103 partner limits assumed): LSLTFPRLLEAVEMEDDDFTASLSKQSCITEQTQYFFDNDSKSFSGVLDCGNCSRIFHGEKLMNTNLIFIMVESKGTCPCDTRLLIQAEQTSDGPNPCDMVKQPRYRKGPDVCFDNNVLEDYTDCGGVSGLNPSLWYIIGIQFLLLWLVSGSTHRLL
T1 sequence (Q08289 whole entry partner): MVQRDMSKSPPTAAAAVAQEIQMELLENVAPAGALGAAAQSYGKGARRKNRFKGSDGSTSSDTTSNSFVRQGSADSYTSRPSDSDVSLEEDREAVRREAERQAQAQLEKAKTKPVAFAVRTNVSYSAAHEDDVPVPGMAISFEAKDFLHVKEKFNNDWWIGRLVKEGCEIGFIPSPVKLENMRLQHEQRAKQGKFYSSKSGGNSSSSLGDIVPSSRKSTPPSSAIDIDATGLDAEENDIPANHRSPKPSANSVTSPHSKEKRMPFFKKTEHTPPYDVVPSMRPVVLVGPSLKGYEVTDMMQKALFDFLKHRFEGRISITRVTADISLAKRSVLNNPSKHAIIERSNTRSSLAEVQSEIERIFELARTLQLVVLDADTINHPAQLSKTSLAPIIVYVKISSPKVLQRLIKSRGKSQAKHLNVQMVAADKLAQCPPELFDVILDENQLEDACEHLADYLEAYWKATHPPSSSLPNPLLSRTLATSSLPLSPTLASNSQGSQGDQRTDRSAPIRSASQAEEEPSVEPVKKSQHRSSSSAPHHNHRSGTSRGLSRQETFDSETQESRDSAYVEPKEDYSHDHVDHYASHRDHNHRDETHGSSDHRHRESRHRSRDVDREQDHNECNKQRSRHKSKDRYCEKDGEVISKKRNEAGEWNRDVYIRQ

[K+] [K^+]
EC50: 11 mM
